Source: ChEMBL document CHEMBL3112567, “Novel GlyT1 inhibitor chemotypes by scaffold hopping. Part 1: development of a potent and CNS penetrant [3.1.0]-based lead” (Bioorg Med Chem Lett, 2014)
Blank lines part the entries; values can stand above or below the compound they belong to. Calls of active or inactive are those of the source. No cut-off for these calls is given here.

Tests used:
[1] = target: T1, Sodium- and chloride-dependent glycine transporter 1 (Homo sapiens, UniProt P48067); test: Inhibition of GlyT1 (unknown origin) assessed as inhibition of [14C]glycine uptake
T1 sequence (P48067 whole entry): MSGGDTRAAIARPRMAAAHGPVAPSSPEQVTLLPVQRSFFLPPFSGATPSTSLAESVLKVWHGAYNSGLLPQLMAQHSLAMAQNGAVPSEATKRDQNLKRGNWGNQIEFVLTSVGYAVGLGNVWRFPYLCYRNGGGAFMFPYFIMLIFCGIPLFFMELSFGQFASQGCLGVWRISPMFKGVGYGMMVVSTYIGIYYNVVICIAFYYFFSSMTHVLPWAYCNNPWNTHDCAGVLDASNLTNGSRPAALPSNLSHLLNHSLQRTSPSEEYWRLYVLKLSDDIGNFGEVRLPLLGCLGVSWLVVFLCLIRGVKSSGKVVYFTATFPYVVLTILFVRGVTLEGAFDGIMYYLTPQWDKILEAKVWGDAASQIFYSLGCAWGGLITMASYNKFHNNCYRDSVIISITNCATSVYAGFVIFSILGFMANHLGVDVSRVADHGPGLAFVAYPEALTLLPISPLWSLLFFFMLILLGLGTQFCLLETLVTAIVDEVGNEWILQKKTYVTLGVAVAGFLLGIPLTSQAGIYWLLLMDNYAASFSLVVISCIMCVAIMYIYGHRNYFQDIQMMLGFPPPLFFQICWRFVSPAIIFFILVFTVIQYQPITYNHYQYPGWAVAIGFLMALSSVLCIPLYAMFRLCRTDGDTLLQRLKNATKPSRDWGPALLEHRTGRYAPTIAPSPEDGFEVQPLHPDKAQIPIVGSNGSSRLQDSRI

[2] = system: Plasma; test: (§1) Fraction unbound in human plasma; type: ADME, cell-free
[3] = Partitioning coefficient, ratio of drug uptake from rat brain to plasma at 10 mg/kg, po; type: ADME, organism-based; set-up: dose 10 mg/kg, route oral
[4] = target: Cytochrome P450 2C9 (Homo sapiens, UniProt P11712); test: Inhibition of CYP2C9 (unknown origin); type: ADME
[5] = as §1; type: ADME, cell-free
[6] = target: Cytochrome P450 2D6 (Homo sapiens, UniProt P10635); test: Inhibition of CYP2D6 (unknown origin); type: ADME
[7] = target: Cytochrome P450 3A4 (Homo sapiens, UniProt P08684); test: Inhibition of CYP3A4 (unknown origin); type: ADME
[8] = target: T2, Cytochrome P450 1A2 (Homo sapiens, UniProt P05177); test: Inhibition of CYP1A2 (unknown origin); type: ADME
T2 sequence (P05177 whole entry): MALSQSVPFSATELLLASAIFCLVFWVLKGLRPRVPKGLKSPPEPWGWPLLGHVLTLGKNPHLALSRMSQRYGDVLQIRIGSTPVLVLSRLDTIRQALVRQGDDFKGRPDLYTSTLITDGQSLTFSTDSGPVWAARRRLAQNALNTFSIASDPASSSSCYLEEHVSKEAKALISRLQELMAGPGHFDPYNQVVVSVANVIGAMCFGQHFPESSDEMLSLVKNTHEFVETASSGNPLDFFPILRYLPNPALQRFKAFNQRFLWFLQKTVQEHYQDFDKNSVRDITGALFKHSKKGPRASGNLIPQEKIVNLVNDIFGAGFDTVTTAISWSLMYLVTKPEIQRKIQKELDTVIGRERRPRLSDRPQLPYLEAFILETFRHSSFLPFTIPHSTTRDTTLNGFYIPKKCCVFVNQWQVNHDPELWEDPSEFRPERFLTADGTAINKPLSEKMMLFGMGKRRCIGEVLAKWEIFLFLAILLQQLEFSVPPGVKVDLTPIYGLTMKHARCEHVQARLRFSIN

[9] = target: T3, Sodium- and chloride-dependent glycine transporter 2 (Homo sapiens, UniProt Q9Y345); test: Inhibition of GlyT2 (unknown origin)
T3 sequence (Q9Y345 whole entry): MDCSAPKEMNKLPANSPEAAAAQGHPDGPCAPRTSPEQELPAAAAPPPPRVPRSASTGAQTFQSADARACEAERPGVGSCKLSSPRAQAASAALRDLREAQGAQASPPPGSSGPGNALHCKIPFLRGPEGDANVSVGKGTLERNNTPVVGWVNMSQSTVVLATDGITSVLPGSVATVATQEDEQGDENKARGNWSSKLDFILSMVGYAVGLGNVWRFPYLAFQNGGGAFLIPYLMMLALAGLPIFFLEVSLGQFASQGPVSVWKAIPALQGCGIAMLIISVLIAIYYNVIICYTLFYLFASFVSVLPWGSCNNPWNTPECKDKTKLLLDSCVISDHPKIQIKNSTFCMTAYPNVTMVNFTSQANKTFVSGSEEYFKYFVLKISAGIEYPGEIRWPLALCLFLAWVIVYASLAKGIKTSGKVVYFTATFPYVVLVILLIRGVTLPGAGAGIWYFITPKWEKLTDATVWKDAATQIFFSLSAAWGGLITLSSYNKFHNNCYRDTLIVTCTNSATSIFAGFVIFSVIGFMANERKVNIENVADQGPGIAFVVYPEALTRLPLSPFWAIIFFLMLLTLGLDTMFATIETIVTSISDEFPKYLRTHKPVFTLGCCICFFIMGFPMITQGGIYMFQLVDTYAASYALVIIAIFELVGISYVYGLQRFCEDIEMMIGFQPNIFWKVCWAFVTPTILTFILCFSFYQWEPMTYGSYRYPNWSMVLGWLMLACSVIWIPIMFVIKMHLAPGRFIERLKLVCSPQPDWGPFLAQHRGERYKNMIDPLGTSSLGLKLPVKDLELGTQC

[10] = target: T4, Sodium- and chloride-dependent glycine transporter 1 (Homo sapiens) (UniProt P48067); test: Competitive inhibition of GlyT1 (unknown origin) at 40 nM by Eadie-Hofstee plot analysis in presence of [14C]-glycine
T4 sequence (whole entry): T1 sequence (P48067 whole entry)

[11] = system: Rattus norvegicus; test: Toxicity in rat schizophrenia model assessed as effect on basal startle amplitude at 30 mg/kg, po; type: organism-based; set-up: dose 30 mg/kg, route oral; conditions: in vivo
[12] = system: Rattus norvegicus; test: Antischizophrenic activity in rat schizophrenia model assessed as inhibition of […] to […] dB intensity-induced prepulse at 30 mg/kg, po; type: functional, organism-based; set-up: dose 30 mg/kg
[13] = system: Plasma; test: Fraction unbound in rat plasma; type: ADME, cell-free
[14] = system: Plasma; test: AUC (0 to 6 hrs) in rat plasma at 10 mg/kg, sc; type: ADME, organism-based; set-up: time < 6 hr, dose 10 mg/kg, route subcutaneous; conditions: in vivo
[15] = AUC (0 to 6 hrs) in rat brain at 10 mg/kg, sc; type: ADME, organism-based; set-up: time < 6 hr, dose 10 mg/kg, route subcutaneous
[16] = system: Plasma; test: AUC (0 to 6 hrs) in rat plasma at 10 mg/kg, po; type: ADME, organism-based; set-up: time < 6 hr, dose 10 mg/kg, route oral; conditions: in vivo
[17] = Clearance in rat at 0.5 mg/kg, iv; type: ADME, organism-based; set-up: dose 0.5 mg/kg, route intravenous; conditions: in vivo
[18] = Partitioning coefficient, ratio of drug uptake from rat brain to plasma at 10 mg/kg, sc; type: ADME, organism-based; set-up: dose 10 mg/kg, route subcutaneous
[19] = AUC (0 to 6 hrs) in rat brain at 10 mg/kg, po; type: ADME, organism-based; set-up: time < 6 hr, dose 10 mg/kg, route oral
[20] = system: Plasma; test: Metabolic stability in rat plasma after 4 hrs; type: ADME, cell-free
[21] = Half life in rat at 0.5 mg/kg, iv; type: ADME, organism-based; set-up: dose 0.5 mg/kg, route intravenous; conditions: in vivo

Chain of Cytochrome P450 2D6 (P10635 whole entry): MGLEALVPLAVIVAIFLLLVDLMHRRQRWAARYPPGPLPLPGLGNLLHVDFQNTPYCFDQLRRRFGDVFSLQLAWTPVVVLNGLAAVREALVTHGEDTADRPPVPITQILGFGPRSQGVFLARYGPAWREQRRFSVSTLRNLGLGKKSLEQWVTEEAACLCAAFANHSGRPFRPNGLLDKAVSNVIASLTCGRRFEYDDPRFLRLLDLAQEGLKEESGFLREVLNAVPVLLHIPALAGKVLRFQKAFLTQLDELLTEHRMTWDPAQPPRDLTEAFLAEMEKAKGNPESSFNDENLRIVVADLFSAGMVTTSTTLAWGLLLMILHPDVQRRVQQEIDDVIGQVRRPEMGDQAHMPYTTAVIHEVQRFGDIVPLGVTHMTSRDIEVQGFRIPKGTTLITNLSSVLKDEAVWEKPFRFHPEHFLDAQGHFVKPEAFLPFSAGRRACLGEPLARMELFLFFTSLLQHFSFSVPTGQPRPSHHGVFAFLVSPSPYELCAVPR
Chain of Cytochrome P450 3A4 (P08684 whole entry): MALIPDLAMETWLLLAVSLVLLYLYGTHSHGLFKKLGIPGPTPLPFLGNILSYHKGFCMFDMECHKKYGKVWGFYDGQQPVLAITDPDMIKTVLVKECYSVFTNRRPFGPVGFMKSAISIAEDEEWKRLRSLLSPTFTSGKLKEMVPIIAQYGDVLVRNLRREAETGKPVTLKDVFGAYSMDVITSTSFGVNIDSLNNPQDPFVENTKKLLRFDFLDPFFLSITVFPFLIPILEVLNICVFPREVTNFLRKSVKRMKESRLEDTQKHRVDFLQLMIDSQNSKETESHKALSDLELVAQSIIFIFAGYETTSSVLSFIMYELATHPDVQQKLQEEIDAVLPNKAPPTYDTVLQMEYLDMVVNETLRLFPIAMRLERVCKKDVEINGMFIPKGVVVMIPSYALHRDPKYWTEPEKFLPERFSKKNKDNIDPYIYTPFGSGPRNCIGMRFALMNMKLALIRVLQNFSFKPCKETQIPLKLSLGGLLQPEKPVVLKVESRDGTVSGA
Chain of Cytochrome P450 2C9 (P11712 whole entry): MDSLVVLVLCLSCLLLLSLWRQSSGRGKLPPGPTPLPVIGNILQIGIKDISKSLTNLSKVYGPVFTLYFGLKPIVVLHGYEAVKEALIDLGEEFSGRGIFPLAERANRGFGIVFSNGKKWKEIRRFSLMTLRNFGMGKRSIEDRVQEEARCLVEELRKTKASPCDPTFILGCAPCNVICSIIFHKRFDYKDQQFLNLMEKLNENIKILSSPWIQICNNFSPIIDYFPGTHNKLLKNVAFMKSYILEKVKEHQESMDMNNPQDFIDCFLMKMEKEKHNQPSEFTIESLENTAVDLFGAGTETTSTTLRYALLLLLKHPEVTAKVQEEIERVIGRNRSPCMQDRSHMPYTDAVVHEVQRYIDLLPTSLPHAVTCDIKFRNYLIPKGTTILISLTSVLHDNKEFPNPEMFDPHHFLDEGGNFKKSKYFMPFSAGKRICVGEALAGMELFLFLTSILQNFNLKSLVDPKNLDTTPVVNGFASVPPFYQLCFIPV

IC50 [1]: 0.032 µM
Fu [2]: 3%
Kp ([3]; brain): 0.3
SMILES: Cn1cnc(S(=O)(=O)N2C[C@@H]3[C@H](C2)[C@@]3(CNC(=O)c2ccc(Cl)cc2)CC2CC2)c1

IC50 [4]: > 30 µM
IC50 [1]: 0.185 µM
fraction unbound [5]: 0.076
IC50 [6]: > 30 µM
IC50 [7]: > 30 µM
IC50 [8]: > 30 µM
SMILES: Cn1cnc(S(=O)(=O)N2C[C@@H]3[C@H](C2)[C@@]3(CNC(=O)c2ccccc2C(F)(F)F)c2ccccn2)c1

IC50 [4]: > 10 µM
IC50 [1]: 0.0024 µM
IC50 [7]: > 10 µM
SMILES: CCCS(=O)(=O)N1CCC(c2ccccc2)([C@H](C)NC(=O)c2ccc(Cl)cc2Cl)CC1

IC50 [1]: 3.4 µM
IC50 [9]: > 30 µM
SMILES: CC(C)S(=O)(=O)N1C[C@@H]2[C@H](C1)[C@@]2(CNC(=O)c1ccc(Cl)cc1Cl)CC1CC1

SMILES: CCS(=O)(=O)N1C[C@@H]2[C@H](C1)[C@@]2(CNC(=O)c1ccc(Cl)cc1Cl)CC1CC1
IC50 [1]: 1.3 µM
IC50 [9]: > 30 µM

fraction unbound [5]: 0.03
Kp ([3]; brain and plasma, read-out: Kp): 0.4
SMILES: Cn1cnc(S(=O)(=O)N2C[C@@H]3[C@H](C2)[C@@]3(CNC(=O)c2ccccc2Cl)CC2CC2)c1

IC50 [1]: > 10 µM
IC50 [9]: > 30 µM
SMILES: O=C(NC[C@]1(CC2CC2)[C@@H]2CN(S(=O)(=O)c3ccccc3)C[C@@H]21)c1ccc(Cl)cc1Cl

IC50 [1]: 0.23 µM
IC50 [9]: > 30 µM
SMILES: O=C(NC[C@]1(CC2CC2)[C@@H]2CN(S(=O)(=O)CC3CC3)C[C@@H]21)c1ccc(Cl)cc1Cl

IC50 [1]: 0.028 µM
inhibition [10]: Active
Fu [2]: 8%
Kp ([3]; brain): 0.5
SMILES: Cn1cnc(S(=O)(=O)N2C[C@@H]3[C@H](C2)[C@@]3(CNC(=O)c2c(Cl)cccc2Cl)CC2CC2)c1

IC50 [4]: > 10 µM
IC50 [7]: > 10 µM
SMILES: CCS(=O)(=O)N1CCC(CNC(=O)c2ccc(Cl)cc2Cl)(CC2CC2)CC1
Activity [11]: Non-toxic
inhibition [12]: Active

IC50 [1]: 2.9 µM
IC50 [9]: > 30 µM
SMILES: CC(C)CS(=O)(=O)N1C[C@@H]2[C@H](C1)[C@@]2(CNC(=O)c1ccc(Cl)cc1Cl)CC1CC1

IC50 [4]: > 10 µM
IC50 [7]: > 10 µM
SMILES: CN1C[C@@H]2[C@H](C1)[C@H]2CN(Cc1ccc(Cl)c(F)c1)C(=O)c1cn(C)cn1

IC50 [1]: > 10 µM
IC50 [9]: > 30 µM
SMILES: O=C(NC[C@]1(CC2CC2)[C@@H]2CN(S(=O)(=O)c3ccccc3F)C[C@@H]21)c1ccc(Cl)cc1Cl

IC50 [4]: > 30 µM
IC50 [1]: 0.247 µM
fraction unbound [5]: 0.14
IC50 [6]: > 30 µM
IC50 [7]: > 30 µM
IC50 [8]: > 30 µM
Kp ([3]; brain): 1.1
SMILES: Cn1cnc(S(=O)(=O)N2C[C@@H]3[C@H](C2)[C@@]3(CNC(=O)c2ccc(Cl)cc2Cl)c2ccccn2)c1

IC50 [1]: 0.36 µM
IC50 [9]: > 30 µM
SMILES: CCCS(=O)(=O)N1C[C@@H]2[C@H](C1)[C@@]2(CNC(=O)c1ccc(Cl)cc1Cl)CC1CC1

IC50 [1]: 5.5 µM
IC50 [9]: > 30 µM
SMILES: CCCCS(=O)(=O)N1C[C@@H]2[C@H](C1)[C@@]2(CNC(=O)c1ccc(Cl)cc1Cl)CC1CC1

SMILES: Cn1cnc(S(=O)(=O)N2C[C@@H]3[C@H](C2)[C@@]3(CNC(=O)c2ccccc2C(F)(F)F)CC2CC2)c1
IC50 [4]: > 30 µM
IC50 [1]: 0.005 µM
Fu [2]: 7%
Activity [11]: Non-toxic
Fu [13]: 44.8%
AUC [14]: 0.976 µM·h
inhibition [12]: Active
AUC(0-t) at 6 h [15]: 0.431 µM·h
AUC [16]: 1.156 µM·h
IC50 [6]: > 30 µM
clearance [17]: 31 mL/min/kg
Kp [18]: 0.44
IC50 [8]: > 30 µM
Kp ([3]; brain): 0.83
AUC(0-t) at 6 h [19]: 0.956 µM·h
Stability [20]: Stable
half-life [21]: 14.5 min

SMILES: NCC(=O)O [GLYCINE]
IC50 [1]: 31.6 µM

IC50 [1]: 0.064 µM
Fu [2]: 4%
Kp ([3]; brain and plasma, read-out: Kp): 0.7
SMILES: Cn1cnc(S(=O)(=O)N2C[C@@H]3[C@H](C2)[C@@]3(CNC(=O)c2cccc(C(F)(F)F)c2)CC2CC2)c1

IC50 [1]: 0.1 µM
Fu [2]: 2%
Kp ([3]; brain): 0.3
SMILES: Cn1cnc(S(=O)(=O)N2C[C@@H]3[C@H](C2)[C@@]3(CNC(=O)c2cc(Cl)cc(Cl)c2)CC2CC2)c1

IC50 [1]: 1 µM
IC50 [9]: > 30 µM
SMILES: O=C(NC[C@]1(CC2CC2)[C@@H]2CN(S(=O)(=O)c3ccccn3)C[C@@H]21)c1ccc(Cl)cc1Cl

fraction unbound [5]: 0.05
Kp ([3]; brain and plasma, read-out: Kp): 0.3
SMILES: Cn1cnc(S(=O)(=O)N2C[C@@H]3[C@H](C2)[C@@]3(CNC(=O)c2ccc(Cl)cc2Cl)CC2CC2)c1

SMILES: Cn1cnc(S(=O)(=O)N2C[C@@H]3[C@H](C2)[C@@]3(CNC(=O)c2ccc(Cl)c(Cl)c2)CC2CC2)c1
IC50 [1]: 0.082 µM
Fu [2]: 2%
Kp ([3]; brain): 0.3

IC50 [1]: 0.89 µM
IC50 [9]: > 30 µM
SMILES: O=C(NC[C@]1(CC2CC2)[C@@H]2CN(S(=O)(=O)c3cccnc3)C[C@@H]21)c1ccc(Cl)cc1Cl
